One data set is described as follows: clinical. The protocol: In this open-label pharmacokinetic/pharmacodynamic study, pharmacokinetics and effects of 400 mg oral tyramine were analysed in relation to MAO-A, CYP2D6, and OCT1 genotypes in 88 healthy volunteers. Eighty percent of the participants were unselected volunteers from Göttingen area in Germany; the remaining 20% were selected from an internal database to enrich the study sample with rare OCT1 or CYP2D6 variants. With widely accepted statistical criteria (type I error of 0.05 and type II error of 0.2), at least 10 subjects with genetically defined very low activity of OCT1 or CYP2D6 and a similar or higher number without deficiency should be sufficient to confirm a relevant 50% change in tyramine plasma AUC as a result of genetic variation. Because of the very diverse and not pharmacokinetic-based literature data on the functional effects of MAO-A polymorphisms, no power calculation could be performed with regard to MAO-A genotypes. However, a sample size of nearly a hundred individuals should be sufficient to find genotypes with a population frequency of at least 5%. All volunteers gave their written informed consent before participation in the study. The study was approved by the ethics committee of the University of Göttingen. It was registered at the German Clinical Trials Registry and the World Health Organization International Clinical Trials Registry Platform (DRKS00008915; https://www.drks.de/DRKS00008915).
Plasma and urine concentrations of tyramine and 4-HPAA were analysed by HPLC with tandem mass spectrometry using tyramine-d4 (Santa Cruz Biotechnology, Inc., Dallas, TX, USA) as internal standard. GR 49336 (5-[[(methylamino)sulfonyl]methyl]-1H-indole-3-acetic acid; Santa Cruz Biotechnology, Inc.) was used as internal standard for 4-HPAA. The analytical standards for tyramine were obtained from Fluka (Morristown, NJ, USA) and for 4-HPAA from Sigma-Aldrich (Darmstadt, Germany). The limit of detection for tyramine was 0.1 ng/ml in plasma and 10 ng/ml in urine; for 4-HPAA, it was 5 ng/ml in plasma and 0.5 µg/ml in urine. The limit of quantification for tyramine was 0.25 ng/ml in plasma and 15 ng/ml in urine; for 4-HPAA, it was 15 ng/ml in plasma and 1.5 µg/ml in urine.
200 µl of plasma were precipitated in 1.5 ml Eppendorf tubes with 400 µl acetonitrile/methanol (9:1, v:v), including the internal standards. After 10 min on ice, tubes were centrifuged for 30 min at 13,000 rpm, and 300 µl of the supernatant were transferred to a microtiter plate. The supernatant was evaporated using nitrogen and re-dissolved in 0.1% formic acid. 10 µl were injected into the HPLC system. Chromatography was performed using a Shimadzu Nexera system with an API 4000 detector. Separation for analysis of tyramine and methyltyramine was performed at 40°C on a Brownlee SPP RP-Amide 100 x 4.6 mm, 2.7 µm particle size, column using water with 0.1% (v/v) formic acid, 2.57% acetonitrile, and 0.43% methanol as eluent. Detection (positive mode) of tyramine was based on the masses 139.1/121.1 and for tyramine-d4 on 142.0/125.0. Calibration range was 0.5 to 200 µg/l with coefficients of variation of 4.6%, 2.8%, and 2.6% at 2, 20, and 150 µg/l, respectively. Analysis of 4-HPAA was performed on the same system, using 0.1% formic acid, 17.14% acetonitrile, and 2.86% methanol as eluent and detection in the negative mode based on the masses 151.0/107.2 for 4-HPAA and 281.2/142.1 for the internal standard. Calibration range was between 0.03 and 20 mg/l and coefficients of variation were 4.7%, 4.2%, and 3.7% at 1, 5, and 15 mg/l.
Pharmacokinetic parameters were calculated by non-compartmental analysis using Phoenix 64 WinNonlin version 6 (Certara USA, Inc., Princeton NJ, USA). AUCinf of tyramine was calculated from time of dosing using the linear/log trapezoidal rule, and extrapolated to inﬁnity based on the last predicted concentration and using the terminal elimination rate constant (lambda z).

Data set [1] relates to healthy volunteers. The settings on record: in vivo.
Protocol: (§1) To avoid interference by dietary tyramine, food and drink (including alcohol) consumption was prohibited from the evening before the study day until the last blood and urine sampling, except for water at any time and bread with butter 3 h before and 3 h after tyramine administration. A medical examination and electrocardiogram measurement were conducted 3 h prior to tyramine administration. Blood samples were drawn 3 h before and at the following times after tyramine intake: 15, 30, and 45 min as well as 1, 1.5, 2, 2.5, 3, 4, and 6 h. Urine samples were taken from 3 h to 10 min before tyramine administration as well as from 0 to 3 h and from 3 to 6 h after. Blood samples were centrifuged (10 min, 4°C, 4,000 rpm) and plasma and urine samples were stored at −20°C until analysis. Blood pressure and heart rate were measured 3 h, 35 min, and 10 min before tyramine administration, and subsequently in 15 min intervals until 6 h after. In a subgroup of eight participants, blood pressure was continuously monitored based on an analysis of pulse pressure curves using the SOMNOtouch™ NIPB non-invase system (SOMNOmedics GmbH, Randersacker, Germany). An orthostatic blood pressure test was performed 10 min before as well as 30 min and 1.5 h after tyramine intake. Pupillometry was performed 35 min prior to, and 1, 2, and 6 h after tyramine administration. Participants were asked to report on symptoms possibly related to tyramine (headache, fatigue, sleepiness, visual or hearing impairments, restlessness, nausea, dizziness, dry mouth, tremor, sensation of cold, and heart palpitation) using visual analogue scales 3 h before and 1, 3, and 6 h after tyramine intake.
(§2) The primary endpoint was the AUC of tyramine in plasma. Secondary endpoints were the other pharmacokinetic parameters of tyramine and its metabolite 4-HPAA, as well as heart rate, blood pressure, pupil size effects, and possible adverse events (headache, fatigue, visual or hearing impairments, restlessness, nausea, dizziness, dry mouth, tremor, hypothermia, heart palpitations). In addition, the cumulative amounts of tyramine and 4-HPAA excreted in urine were measured over time periods of 3 h before (baseline) and 6 h after application.
On the set-up of data set [2]: method as in earlier work. As to conditions: fasting state; upwards; ref VanDenBerg et al., 2003; Di Stefano et al., 2013; Gillman, 2018; cited from earlier work.
For data set [3], the system named is organic cation transporter 1 (OCT1, or SLC22A1). Further details: method as in Breidert et al., 1998. The settings on record: ref Breidert et al., 1998; cited from earlier work.
Data set [4] has as its system healthy volunteers. The data set can be described thus: Blood pressure and heart rate effects after 400 mg oral tyramine. The format is in vivo, human. The source says:
Purity was confirmed by HPLC.

The test system of data set [5] is healthy volunteers. Description: Adverse events, adverse symptoms (visual analogue scales) and pupillometry after 400 mg oral tyramine.
Protocol: as §1, §2
Where [6] appears, read: human, in vivo, po, 400 mg, t max.
[7] abbreviates: human, in vivo, po, 400 mg, tmax, range.

Consider three molecules from PMC6831736, “Highly Variable Pharmacokinetics of Tyramine in Humans and Polymorphisms in OCT1, CYP2D6, and MAO-A” (Frontiers in Pharmacology, 2019).

Like-named read-outs stand apart in the source and are kept apart here.

Usually Cmax stands for the highest concentration seen after dosing. In general, half-life refers to the time in which the quantity being followed falls by half. A high value points to slow decline. As a reminder, the AUC(0-inf) is the area under the concentration-time curve extrapolated to infinity. The term Tmax denotes the time from dosing to the highest level. Turning to `O=C(O)Cc1ccc(O)cc1` [4-HPAA, 4-hydroxyphenylacetic acid], in the data set “clinical” (human, in vivo), the “Baseline recovery in the urine cumulated for 3 h prior to tyramine administration” value is listed as 2.65 (0.67–9.05) mg and the concentration at -3 h is 70 ng/mL. Also, the “participants with baseline plasma concentration below the limit of quantification” value in “clinical” (human, in vivo, -3 h) stood at 84%. Moreover, the “dose recovered in urine in form of 4-HPAA” value in “clinical” (human, in vivo, po) amounted to 76.8%. Further, in the data set “clinical” (human, in vivo, po, 400 mg), the CL renal was 240 mL/min, the Cmax was found to be 9040 ng/mL, the half-life worked out at 1.22 h and the “variation of 4-HPAA systemic exposure (plasma AUC)” value is listed as “up to 3 fold”. For the same molecule, the AUC(0-inf) in “clinical” (human, in vivo, po, 400 mg, AUC inf) was 21600 ng·h/mL. Moreover, the Tmax in “clinical” (setting [6]) was 1.47 h. Besides, the time to peak (Tmax) in “clinical” (setting [7]) is 0.483 to 2.5 h. Also, in the data set with healthy volunteers [1], the “correlation of systemic concentration with dizziness” value is on record as “positively”, the “correlation of systemic concentration with dry mouth” value was “weakly”, the “correlation of systemic concentration with headache” value was “positively” and the “correlation of systemic concentration with heart palpitation” value is “positively”.

As to `CNCCc1ccc(O)cc1` [N-methyltyramine], the “Plasma and urine concentrations” value in “clinical” (400 mg oral tyramine, below the limit of detection) is under 1 ng/mL.

The term bioavailability denotes the share of a dose that reaches the circulation, judged against a reference dose that is usually intravenous. Higher therefore signals good availability. Consider `NCCc1ccc(O)cc1` [Tyramine, tyramine], for which the AUC(0-inf) in the data set “clinical” (female, human, in vivo, po, 400 mg) is 0.19 µM·h. In the data set “clinical” (female, human, in vivo, po, 400 mg, Mean plasma AUCinf), this molecule gave an AUC(0-inf) of 0.528 µM·h. Also, in “clinical” (human, in vivo), the “Baseline recovery in the urine cumulated for 3 h prior to tyramine administration” value was 0.055 (0.007–0.222) mg; the “effect of MAO-A genotypes on tyramine pharmacokinetics or its metabolism to 4-HPAA” value is on record as “no significant effects”; the “effect of polymorphisms in OCT1 and CYP2D6 on tyramine pharmacokinetics or pharmacodynamics” value is recorded as “did not significantly affect”. Moreover, in “clinical” (human, in vivo, -3 h), the Baseline plasma concentration is given as 0.39 (0.25 & 0.53) ng/ml and the “participants with baseline plasma concentration below the limit of quantification” value turned out to be 98%. This molecule also gave a bioavailability in “clinical” (human, in vivo, po) of under 1%. Also, in the data set “clinical” (human, in vivo, po, 400 mg), the AUC(0-inf) was 62.3 ng·h/mL, the CL renal was 260 mL/min, the peak level (Cmax) was 87 ng/mL and the half-life was found to be 0.917 h. Also, the Tmax in “clinical” (setting [6]) was 0.767 h. For the same molecule, the Tmax in “clinical” (setting [7]) is 0.217 to 2 h. Further, the “oral tyramine dose at which the pressor response occurs” value in data set [2] is recorded as at least 200 mg. The OCT1 substrate affinity result in data set [3] is on record as “substrate with nanomolar affinity”. In the data set with healthy volunteers [4] (400 mg oral tyramine), the “correlation of rise in systolic blood pressure with systemic tyramine concentration” value is on record as “correlated strongly”, the “participants with blood pressure peaks by >40 mmHg above baseline” value is given as “less than 10%”, the “participants with increases in systolic blood pressure less than 40 mmHg” value turned out to be 90% and the “tyramine concentrations at which blood pressure peaks by >40 mmHg above baseline were observed” value is over 60 µg/L. Besides, in the data set with healthy volunteers [4] (400 mg oral tyramine), the “volunteers with systolic blood pressure increased by more than 10 mmHg” value is reported as 71%. The “tyramine plasma concentration at which diastolic blood pressure increased” value in the data set on healthy volunteers [4] (concentration-effect analyses) is “higher than 100 µg/l”. Further, the “tyramine plasma concentration at which systolic blood pressure rises” value in the data set with healthy volunteers [4] (concentration-effect analyses, and above) is at least 60 µg/L. In addition, the “time of blood pressure reaction after tyramine administration” value in the data set with healthy volunteers [4] (one participant, much delayed) was 90 min. Moreover, the serious adverse events entry with healthy volunteers [5] (400 mg oral tyramine, 88 healthy volunteers) is reported as “no serious adverse events”. The “pupil size and pupil reaction to light before and after tyramine administration” value in the data set on healthy volunteers [5] (repeated pupillometric analyses) is “no difference”. Further, the “correlation of systemic concentration with heart palpitation” value in the data set on healthy volunteers [5] (visual analogue scales, two-tailed, p < 0.001) is recorded as “Positive correlations”. For the same molecule, the “correlation of systemic concentration with inner restlessness” value in the data set with healthy volunteers [5] (visual analogue scales, two-tailed, p = 0.02) was “Positive correlations”.
